Where “and” joins values, the source holds several entries; their conditions need not be identical. Identical values can stand only once. Like-named read-outs stand apart in the source and are kept apart here.
How the values were obtained:
[1] = molecular target: T1, E. coli Topoisomerase IV (Escherichia coli, UniProt P0AFI2); assay: E. coli topoisomerase IV decatenation gel assay; assay type: biochemical
T1 construct: purchased Inspiralis (Norwich, UK)
Protocol: (§1) S. aureus and E. coli DNA gyrase supercoiling and topo IV decatenation assay kits, as well as human topoisomerase II decatenation assay kits, were provided by Inspiralis (Norwich, UK). Assays were performed according to the manufacturer’s instructions. The compounds were serially diluted (1:3 dilutions starting from a 300 μM final concentration) and assayed in a reaction mixture to obtain concentration-response curves in two different replicate experiments. The final concentration of DMSO in the assays was 1% (v/v). The reactions were terminated by the addition of 30 μl chloroform/isoamyl alcohol (26:1) and 30 μl Stop Dye (40% sucrose, 100 mM Tris HCl pH 7.5, 1 mM EDTA, 0.5 μg/ml bromophenol blue), after which the samples were loaded onto a 1.0% TAE ([…]) gel that was then run at 80 V for 2 hours. DNA bands were visualized by ethidium bromide staining the gel for 10 minutes, which was then destained for 10 minutes in water and analysed using gel documentation equipment (Syngene, Cambridge, UK). The DNA in each band was quantitated using Syngene Gene Tools software. Raw gel data (fluorescent band volumes) were converted by the software to percentages of the control (the fully supercoiled or decatenated DNA band). […] The global curve fit non-linear regression tool was used to calculate the IC50 values. The results are expressed as the average values obtained after calculating the IC50 from each replicate run.

[2] = molecular target: T2, S. aureus DNA gyrase (Staphylococcus aureus, UniProt P20831); assay: S. aureus DNA gyrase supercoiling gel assay; assay type: biochemical
T2 construct: purchased Inspiralis (Norwich, UK)
Protocol: as §1

[3] = tested on: N. gonorrhoeae WHO L; assay: MIC, agar dilution; assay type: cell-based; conditions: Neisseria gonorrhoeae, ciprofloxacin-resistant
Protocol: (§2) MICs were determined by the broth microdilution method (the agar dilution method was used only for N. gonorrhoeae) according to CLSI guidelines.

[4] = tested on: N. gonorrhoeae ATCC 49226; assay: MIC, agar dilution; assay type: cell-based; conditions: Neisseria gonorrhoeae, ATCC49226; N. gonorrhoeae ATCC 49226, ciprofloxacin-susceptible
Protocol: as §2

[5] = tested on: N. gonorrhoeae WHO N; assay: MIC, agar dilution; assay type: cell-based; conditions: Neisseria gonorrhoeae, ciprofloxacin-resistant
Protocol: as §2

[6] = tested on: N. gonorrhoeae WHO K; assay: MIC, agar dilution; assay type: cell-based; conditions: Neisseria gonorrhoeae, ciprofloxacin-resistant
Protocol: as §2

[7] = tested on: N. gonorrhoeae ATCC 19424; assay: MIC, agar dilution; assay type: cell-based; conditions: Neisseria gonorrhoeae, ATCC19424; N. gonorrhoeae ATCC 19424, ciprofloxacin-susceptible
Protocol: as §2

[8] = tested on: E. faecium clinical isolates (n = 12) vanA (6)/vanB (6); assay: MIC, multidrug-resistant clinical isolates; assay type: cell-based; conditions: Enterococcus faecium; for MIC: read-out: MIC range
Protocol: (§3) The bacterial reference strains used in this study were purchased from ATCC (American Type Culture Collection) via LGC Standards (Middlesex, UK). […] Clinical MDR isolates were provided by Aptuit, the IHMA Europa Sàrl repository (Epalinges, Switzerland) and the Statens Serum Institute (Copenhagen, Denmark).
as §2
(§4) The results obtained using clinical isolates are reported as MIC50 and MIC90 values.

[9] = tested on: E. faecalis clinical isolates (n = 12) vanA (6)/vanB (6); assay: MIC, multidrug-resistant clinical isolates; assay type: cell-based; conditions: Enterococcus faecalis; for MIC: read-out: MIC range
Protocol: as §3, §2, §4

[10] = molecular target: T3, S. aureus Topoisomerase IV (Staphylococcus aureus, UniProt P0C1U9); assay: S. aureus topoisomerase IV decatenation gel assay; assay type: biochemical
T3 construct: purchased Inspiralis (Norwich, UK)
T3 sequence (P0C1S7 whole entry): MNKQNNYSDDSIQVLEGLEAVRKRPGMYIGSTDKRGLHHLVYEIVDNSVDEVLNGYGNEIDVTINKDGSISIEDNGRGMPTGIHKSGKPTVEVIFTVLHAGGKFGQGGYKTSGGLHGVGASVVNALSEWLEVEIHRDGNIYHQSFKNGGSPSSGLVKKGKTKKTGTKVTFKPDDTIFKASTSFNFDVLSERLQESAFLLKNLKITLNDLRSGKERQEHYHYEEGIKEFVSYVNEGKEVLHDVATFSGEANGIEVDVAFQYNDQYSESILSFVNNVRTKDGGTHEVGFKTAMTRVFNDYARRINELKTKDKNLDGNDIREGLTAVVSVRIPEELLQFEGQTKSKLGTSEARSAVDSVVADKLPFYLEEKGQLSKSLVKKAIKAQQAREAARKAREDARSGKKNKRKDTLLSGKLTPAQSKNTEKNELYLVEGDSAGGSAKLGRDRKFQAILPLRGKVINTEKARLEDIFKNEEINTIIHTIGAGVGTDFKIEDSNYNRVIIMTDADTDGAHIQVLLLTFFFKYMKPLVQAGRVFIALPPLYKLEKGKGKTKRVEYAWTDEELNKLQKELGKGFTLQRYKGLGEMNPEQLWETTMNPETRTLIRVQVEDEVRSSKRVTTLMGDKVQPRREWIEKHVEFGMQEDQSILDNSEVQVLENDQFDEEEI
T3 sequence (P0C1U9 whole entry): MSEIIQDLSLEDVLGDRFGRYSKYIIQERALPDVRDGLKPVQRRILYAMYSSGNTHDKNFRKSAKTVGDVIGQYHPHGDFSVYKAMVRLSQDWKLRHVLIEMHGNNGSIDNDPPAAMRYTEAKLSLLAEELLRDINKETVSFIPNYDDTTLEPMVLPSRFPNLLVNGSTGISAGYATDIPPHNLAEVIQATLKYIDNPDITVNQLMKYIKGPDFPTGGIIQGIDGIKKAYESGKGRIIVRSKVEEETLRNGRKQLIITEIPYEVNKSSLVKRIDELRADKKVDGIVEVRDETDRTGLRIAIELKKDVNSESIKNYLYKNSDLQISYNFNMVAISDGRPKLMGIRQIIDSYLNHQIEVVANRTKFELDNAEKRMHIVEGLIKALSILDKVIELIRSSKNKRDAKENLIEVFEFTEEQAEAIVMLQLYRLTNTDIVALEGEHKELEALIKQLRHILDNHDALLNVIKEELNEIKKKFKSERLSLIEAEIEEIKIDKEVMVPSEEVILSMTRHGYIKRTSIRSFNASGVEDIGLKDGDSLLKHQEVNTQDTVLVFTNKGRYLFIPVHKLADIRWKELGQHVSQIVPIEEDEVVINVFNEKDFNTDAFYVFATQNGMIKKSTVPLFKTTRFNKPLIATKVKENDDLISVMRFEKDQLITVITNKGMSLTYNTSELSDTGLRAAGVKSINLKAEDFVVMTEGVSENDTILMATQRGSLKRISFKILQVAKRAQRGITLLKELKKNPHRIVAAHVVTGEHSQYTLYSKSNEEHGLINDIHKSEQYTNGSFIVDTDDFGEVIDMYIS
Protocol: as §1

[11] = tested on: S. aureus BAA-1720; assay: MIC, broth microdilution; assay type: cell-based; conditions: Staphylococcus aureus, BAA1720; S. aureus BAA-1720, ciprofloxacin-resistant
Protocol: as §2

[12] = tested on: E. coli ATCC 25922; assay: MIC, broth microdilution; assay type: cell-based; conditions: Escherichia coli, ATCC25922; E. coli ATCC 25922, ciprofloxacin-susceptible
Protocol: as §2

[13] = tested on: S. pneumoniae ATCC 49619; assay: MIC, broth microdilution; assay type: cell-based; conditions: Streptococcus pneumoniae, ATCC49619; S. pneumoniae ATCC 49619, ciprofloxacin-susceptible
Protocol: as §2

[14] = tested on: P. aeruginosa ATCC 27853; assay: MIC, broth microdilution; assay type: cell-based; conditions: Pseudomonas aeruginosa, ATCC27853; P. aeruginosa ATCC 27853, ciprofloxacin-susceptible
Protocol: as §2

[15] = tested on: E. faecalis ATCC 29212; assay: MIC, broth microdilution; assay type: cell-based; conditions: Enterococcus faecalis, ATCC29212; E. faecalis ATCC 29212, ciprofloxacin-susceptible
Protocol: as §2

[16] = tested on: H. influenzae ATCC 49766; assay: MIC, broth microdilution; assay type: cell-based; conditions: Haemophilus influenzae, ATCC49766; H. influenzae ATCC 49766, ciprofloxacin-susceptible
Protocol: as §2

[17] = tested on: K. pneumoniae ATCC 700603; assay: MIC, broth microdilution; assay type: cell-based; conditions: Klebsiella pneumoniae, ATCC700603; K. pneumoniae ATCC 700603, ciprofloxacin-susceptible
Protocol: as §2

[18] = tested on: S. aureus ATCC 29213; assay: MIC, broth microdilution; assay type: cell-based, Staphylococcus aureus; conditions: for MIC: Staphylococcus aureus, ATCC29213, S. aureus ATCC 29213, ciprofloxacin-susceptible
Protocol: as §2

[19] = tested on: E. coli TolC- mutant; assay: microbe, parasite or virus in culture; assay type: cell-based; conditions: Escherichia coli
Protocol: as §3, §2

[20] = molecular target: T4, Human Topoisomerase II (Homo sapiens, UniProt P11388); assay: Human topoisomerase II decatenation gel assay; assay type: biochemical
T4 construct: purchased Inspiralis (Norwich, UK)
Protocol: as §1

[21] = molecular target: T5, E. coli DNA gyrase (Escherichia coli, UniProt P0AES4); assay: E. coli DNA gyrase supercoiling gel assay; assay type: biochemical
T5 construct: purchased Inspiralis (Norwich, UK)
T5 sequence (P0AES4 whole entry): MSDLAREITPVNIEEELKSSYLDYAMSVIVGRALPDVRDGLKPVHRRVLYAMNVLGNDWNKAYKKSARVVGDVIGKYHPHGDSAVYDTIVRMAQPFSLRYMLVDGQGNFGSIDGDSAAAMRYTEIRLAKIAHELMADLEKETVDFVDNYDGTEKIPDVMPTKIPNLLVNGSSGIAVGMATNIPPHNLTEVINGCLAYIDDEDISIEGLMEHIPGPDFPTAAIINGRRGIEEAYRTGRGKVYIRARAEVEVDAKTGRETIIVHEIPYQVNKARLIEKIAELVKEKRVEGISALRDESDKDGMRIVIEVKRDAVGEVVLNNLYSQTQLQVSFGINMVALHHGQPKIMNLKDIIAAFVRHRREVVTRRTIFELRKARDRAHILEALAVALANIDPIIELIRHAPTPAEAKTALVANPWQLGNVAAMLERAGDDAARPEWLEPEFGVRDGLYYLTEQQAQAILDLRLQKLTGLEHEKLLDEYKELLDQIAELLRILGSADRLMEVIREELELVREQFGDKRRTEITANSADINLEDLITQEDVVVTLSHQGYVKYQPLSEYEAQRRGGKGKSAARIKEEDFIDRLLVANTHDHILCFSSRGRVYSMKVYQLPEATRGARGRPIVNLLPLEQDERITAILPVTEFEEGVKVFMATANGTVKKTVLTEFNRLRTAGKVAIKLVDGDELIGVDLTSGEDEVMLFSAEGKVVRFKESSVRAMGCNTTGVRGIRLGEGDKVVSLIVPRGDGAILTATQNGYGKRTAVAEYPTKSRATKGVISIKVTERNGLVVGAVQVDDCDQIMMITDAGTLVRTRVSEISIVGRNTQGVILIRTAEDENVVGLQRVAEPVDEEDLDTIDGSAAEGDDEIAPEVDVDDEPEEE
Protocol: as §1

[22] = tested on: N. gonorrhoeae clinical isolates (n = 38); assay: microbe, parasite or virus in culture; assay type: cell-based, Neisseria gonorrhoeae; conditions: for MIC50 / MIC90: Neisseria gonorrhoeae
Protocol: as §3, §2, §4

[23] = IC50 E. coli Topoisomerase IV decatenation (average), average of two replicate experiments
[24] = IC50 E. coli Topoisomerase IV decatenation, Assay 1, replicate Assay 1
[25] = IC50 E. coli Topoisomerase IV decatenation, Assay 2, replicate Assay 2
[26] = average of two replicate experiments, read-out: IC50 S. aureus Gyrase Supercoiling (average)
[27] = replicate Assay 1, read-out: IC50 S.aureus gyrase Supercoiling, Assay 1
[28] = replicate Assay 2, read-out: IC50 S.aureus gyrase Supercoiling, Assay 2
[29] = replicate Assay 1, read-out: IC50 S. aureus Topoisomerase IV decatenation, Assay 1
[30] = replicate Assay 2, read-out: IC50 S. aureus Topoisomerase IV decatenation, Assay 2
[31] = average of two replicate experiments, read-out: IC50 Human Topoisomerase II decatenation (average)
[32] = replicate Assay 1, read-out: IC50 Human Topoisomerase II (TopoII) decatenation, Assay 1
[33] = replicate Assay 2, read-out: IC50 Human Topoisomerase II (TopoII) decatenation, Assay 2
[34] = IC50 E. coli Gyrase Supercoiling (average), average of two replicate experiments
[35] = IC50 E. coli gyrase Supercoiling, Assay 1, replicate Assay 1
[36] = IC50 E. coli gyrase Supercoiling, Assay 2, replicate Assay 2

T1 sequence (P20083 whole entry): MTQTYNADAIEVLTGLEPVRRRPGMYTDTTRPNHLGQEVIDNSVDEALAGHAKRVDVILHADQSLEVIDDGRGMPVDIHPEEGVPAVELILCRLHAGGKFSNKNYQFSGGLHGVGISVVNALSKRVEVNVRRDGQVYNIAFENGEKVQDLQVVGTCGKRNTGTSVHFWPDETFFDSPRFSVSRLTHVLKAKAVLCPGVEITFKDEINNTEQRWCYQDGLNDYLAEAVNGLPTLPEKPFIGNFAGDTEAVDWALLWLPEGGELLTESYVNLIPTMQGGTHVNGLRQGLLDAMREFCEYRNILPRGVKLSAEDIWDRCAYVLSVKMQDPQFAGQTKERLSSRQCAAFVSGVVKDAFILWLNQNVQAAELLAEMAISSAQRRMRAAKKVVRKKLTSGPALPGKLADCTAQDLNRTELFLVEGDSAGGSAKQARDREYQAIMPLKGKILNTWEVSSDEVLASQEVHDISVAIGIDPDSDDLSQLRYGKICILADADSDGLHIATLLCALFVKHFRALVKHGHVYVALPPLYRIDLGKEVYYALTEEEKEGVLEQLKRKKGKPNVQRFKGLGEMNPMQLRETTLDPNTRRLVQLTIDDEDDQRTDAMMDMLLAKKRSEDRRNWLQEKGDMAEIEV
T1 sequence (P0AFI2 whole entry): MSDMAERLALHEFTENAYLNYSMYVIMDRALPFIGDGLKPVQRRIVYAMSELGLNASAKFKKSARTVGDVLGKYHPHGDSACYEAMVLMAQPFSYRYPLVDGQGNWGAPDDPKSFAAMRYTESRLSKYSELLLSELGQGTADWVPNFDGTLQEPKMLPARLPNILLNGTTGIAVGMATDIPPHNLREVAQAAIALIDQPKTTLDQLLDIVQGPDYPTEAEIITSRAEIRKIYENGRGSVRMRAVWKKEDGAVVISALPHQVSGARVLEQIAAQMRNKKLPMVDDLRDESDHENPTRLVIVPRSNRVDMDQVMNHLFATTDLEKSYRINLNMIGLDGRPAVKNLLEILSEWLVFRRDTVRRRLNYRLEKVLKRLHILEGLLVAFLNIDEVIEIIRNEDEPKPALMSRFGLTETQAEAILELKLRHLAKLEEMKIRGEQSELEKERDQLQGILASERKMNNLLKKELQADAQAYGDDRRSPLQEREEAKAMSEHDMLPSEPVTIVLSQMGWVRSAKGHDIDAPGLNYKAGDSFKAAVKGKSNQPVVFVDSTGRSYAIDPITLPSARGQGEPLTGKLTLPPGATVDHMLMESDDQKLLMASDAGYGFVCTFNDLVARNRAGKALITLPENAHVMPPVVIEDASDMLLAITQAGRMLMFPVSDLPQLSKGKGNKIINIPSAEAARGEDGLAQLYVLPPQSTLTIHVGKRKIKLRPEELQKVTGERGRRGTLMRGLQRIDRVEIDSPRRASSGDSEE

## Cl.O=c1oc2ccc(F)cc2c2[nH]c(CN[C@H]3CC[C@H](n4c(=O)ccc5ccc(F)cc54)CC3)cc12 [Compound 6, 8-fluoro-2-({[trans-4-(7-fluoro-2-oxoquinolin-1(2H)-yl)cyclohexyl]amino}methyl)[1]benzopyrano[4,3-b]pyrrol-4(1H)-one hydrochloride]
[1]; [23]
  IC50: 250 nM
[1]; [24]
  IC50: 270 nM
[1]; [25]
  IC50: 220 nM
[2]; [26]
  IC50: 310 nM
[2]; [27]
  IC50: 270 nM
[2]; [28]
  IC50: 350 nM
[3]
  MIC: 0.03 µg/mL
[4]
  MIC: 0.03 µg/mL
[5]
  MIC: 0.03 µg/mL
[6]
  MIC: 0.06 µg/mL
[7]
  MIC: 0.03 µg/mL
[8]
  MIC50: 0.25 µg/mL
  MIC90: 0.25 µg/mL
  MIC: 0.06 to 1 µg/mL
[9]
  MIC50: 0.12 µg/mL
  MIC90: 0.12 µg/mL
  MIC: 0.06 to 0.12 µg/mL
[10]
  IC50: 290 nM
[10]; [29]
  IC50: 310 nM
[10]; [30]
  IC50: 260 nM
[11]
  MIC: ≤ 0.06 µg/mL
[12]
  MIC: 0.25 µg/mL
[13]
  MIC: 0.12 µg/mL
[14]
  MIC: 4 µg/mL
[15]
  MIC: 0.25 µg/mL
[16]
  MIC: 0.5 µg/mL
[17]
  MIC: 8 µg/mL
[18]; S. aureus ATCC 29213
  MIC fold lower than that of ciprofloxacin: approximately 10 fold
[18]
  MIC: ≤ 0.06 µg/mL
[19]
  MIC: ≤ 0.016 µg/mL
[20]; [31]
  IC50: 10100 nM and 10000 nM
[20]; [32]
  IC50: 13000 nM
[20]; [33]
  IC50: 7300 nM
[21]; [34]
  IC50: 130 nM
[21]; [35]
  IC50: 130 nM
[21]; [36]
  IC50: 120 nM
[22]
  MIC range: 0.008 to 0.06 µg/mL
  MIC50: 0.03 µg/mL
  MIC90: 0.06 µg/mL

## Cl.O=c1oc2ccc(F)cc2c2[nH]c(CN[C@H]3CC[C@H](n4c(=O)ccc5ncc(F)cc54)CC3)cc12 [Compound 3, 8-fluoro-2-({[trans-4-(7-fluoro-2-oxo-1,5-naphthyridin-1(2H)-yl)cyclohexyl]amino}methyl)[1]benzopyrano[4,3-b]pyrrol-4(1H)-one hydrochloride]
[1]; [23]
  IC50: < 100 nM
[1]; [24]
  IC50: < 100 nM
[1]; [25]
  IC50: < 100 nM
[1]; read-out: IC50 E. coli Topoisomerase IV decatenation (average), average of two replicate experiments
  IC50: < 100 nM
[2]; [26]
  IC50: < 100 nM
[2]; [27]
  IC50: < 100 nM
[2]; [28]
  IC50: < 100 nM
[3]
  MIC: 0.016 µg/mL
[4]
  MIC: 0.016 µg/mL
[5]
  MIC: 0.016 µg/mL
[6]
  MIC: 0.016 µg/mL
[7]
  MIC: ≤ 0.06 µg/mL
[8]
  MIC50: 0.12 µg/mL
  MIC90: 0.25 µg/mL
  MIC: 0.06 to 2 µg/mL
[9]
  MIC50: 0.12 µg/mL
  MIC90: 0.12 µg/mL
  MIC: 0.06 to 0.12 µg/mL
[10]; average of two replicate experiments, read-out: IC50 S. aureus Topoisomerase IV decatenation (average)
  IC50: < 100 nM
[10]; [29]
  IC50: < 100 nM
[10]; [30]
  IC50: < 100 nM
[11]
  MIC: 0.12 µg/mL
[12]
  MIC: 0.5 µg/mL
[13]
  MIC: 0.25 µg/mL
[14]
  MIC: 4 µg/mL
[15]
  MIC: 0.12 µg/mL
[16]
  MIC: 0.12 µg/mL
[17]
  MIC: 2 µg/mL
[18]
  MIC: 0.25 µg/mL
[19]
  MIC: ≤ 0.016 µg/mL
[20]; [31]
  IC50: 56000 nM
[20]; [32]
  IC50: 46000 nM
[20]; [33]
  IC50: 66000 nM
[21]; [34]
  IC50: < 100 nM
[21]; [35]
  IC50: < 100 nM
[21]; [36]
  IC50: < 100 nM
[21]; read-out: IC50 E. coli Gyrase Supercoiling (average), average of two replicate experiments
  IC50: < 100 nM
[22]
  MIC range: 0.004 to 0.03 µg/mL
  MIC50: 0.016 µg/mL
  MIC90: 0.03 µg/mL

Source: article PMC7029851, “Antibacterial activity of novel dual bacterial DNA type II topoisomerase inhibitors” (PLoS ONE, 2020)
